Laboratory results as given in ChEMBL document CHEMBL5550170, “Discovery of novel benzimidazole derivatives as selective and reversible monoamine oxidase B inhibitors for Parkinson's disease treatment” (Eur J Med Chem, 2024).

What was measured:
[1] = target: T1, Amine oxidase [flavin-containing] B (Homo sapiens, UniProt P27338); conditions: 0.5 h, read-out: INH
T1 sequence (P27338 whole entry): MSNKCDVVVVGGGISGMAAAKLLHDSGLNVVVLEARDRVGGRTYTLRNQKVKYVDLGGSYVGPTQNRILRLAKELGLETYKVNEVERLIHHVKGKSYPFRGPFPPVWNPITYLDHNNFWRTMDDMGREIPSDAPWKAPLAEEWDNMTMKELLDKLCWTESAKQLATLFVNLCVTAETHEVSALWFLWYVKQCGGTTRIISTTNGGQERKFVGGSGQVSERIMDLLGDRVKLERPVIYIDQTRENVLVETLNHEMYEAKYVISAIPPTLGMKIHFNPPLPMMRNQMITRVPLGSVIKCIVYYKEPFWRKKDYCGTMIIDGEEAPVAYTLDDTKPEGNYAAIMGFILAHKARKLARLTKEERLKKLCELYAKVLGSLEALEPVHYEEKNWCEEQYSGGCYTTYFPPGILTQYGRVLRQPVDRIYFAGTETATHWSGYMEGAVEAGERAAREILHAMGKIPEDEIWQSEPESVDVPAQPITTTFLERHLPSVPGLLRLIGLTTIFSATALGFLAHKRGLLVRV
Description: Inhibition of human MAO-B at 1 uM preincubated with compound for 10 mins followed by substrate addition and measured after 30 mins relative to control

[2] = target: T1, Amine oxidase [flavin-containing] B
Description: Inhibition of human MAO-B preincubated with compound for 10 mins followed by substrate addition and measured after 30 mins

[3] = target: T2, Amine oxidase [flavin-containing] A (Homo sapiens, UniProt P21397)
T2 sequence (P21397 whole entry): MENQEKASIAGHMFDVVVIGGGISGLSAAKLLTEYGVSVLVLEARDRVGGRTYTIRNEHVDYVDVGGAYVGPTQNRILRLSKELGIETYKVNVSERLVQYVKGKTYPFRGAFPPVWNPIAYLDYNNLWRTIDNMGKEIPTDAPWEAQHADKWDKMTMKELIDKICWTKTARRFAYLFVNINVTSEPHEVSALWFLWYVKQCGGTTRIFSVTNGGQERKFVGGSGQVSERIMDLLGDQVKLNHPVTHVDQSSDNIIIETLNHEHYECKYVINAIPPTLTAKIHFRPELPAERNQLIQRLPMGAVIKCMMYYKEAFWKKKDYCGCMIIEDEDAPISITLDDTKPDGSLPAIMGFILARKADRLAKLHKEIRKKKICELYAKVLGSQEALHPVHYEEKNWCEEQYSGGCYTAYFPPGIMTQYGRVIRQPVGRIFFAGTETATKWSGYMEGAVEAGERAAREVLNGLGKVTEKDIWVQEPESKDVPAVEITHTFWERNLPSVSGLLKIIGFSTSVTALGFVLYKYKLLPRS
Description: Inhibition of human MAO-A preincubated with compound for 10 mins followed by substrate addition and measured after 30 mins

Structure (SMILES)	inhibition at 1 µM [1]	IC50 [2]	IC50 [3]
NC(=O)Cc1nc2cc(OCc3ccccc3)ccc2[nH]1	14.3%		
NC(=O)Cc1nc2cc(OCc3ccccc3Cl)ccc2[nH]1	8.15%		
Cc1ccc(NC(=O)c2ccc3[nH]c(CC(N)=O)nc3c2)cc1C	31.3%		
NC(=O)Cc1nc2cc(OCc3cccc(F)c3)ccc2[nH]1	67.5%	126 nM	49900 nM
NC(=O)Cc1nc2cc(C(=O)Nc3ccccc3F)ccc2[nH]1	44%		
NC(=O)Cc1nc2cc(OCc3cccc(Cl)c3)ccc2[nH]1	67.3%	292 nM	
NC(=O)Cc1nc2cc(C(=O)Nc3cccc(Cl)c3)ccc2[nH]1	47.6%		
NC(=O)Cc1nc2cc(C(=O)Nc3ccc(F)cc3)ccc2[nH]1	44.4%		
NC(=O)Cc1nc2cc(C(=O)Nc3ccc(Cl)cc3)ccc2[nH]1	38.4%		
COc1cccc(NC(=O)c2ccc3[nH]c(CC(N)=O)nc3c2)c1	34.6%		
Cc1ccc(NC(=O)c2ccc3[nH]c(CC(N)=O)nc3c2)cc1	29.6%		
NC(=O)Cc1nc2cc(C(=O)Nc3ccccc3)ccc2[nH]1	29.9%		
NC(=O)Cc1nc2cc(OCc3ccc(Cl)cc3)ccc2[nH]1	58.5%	443 nM	31300 nM
COc1ccc(NC(=O)c2ccc3[nH]c(CC(N)=O)nc3c2)cc1	28.5%		
C#CCN(C)Cc1ccccc1 [PARGYLINE]	62.9%		

Other lines, results leading:

inhibition at 1 µM [1]	IC50 [2]	IC50 [3]	Structure (SMILES)
0.93%			COc1ccc2[nH]c(CC(N)=O)nc2c1
8.29%			Cc1ccc(COc2ccc3[nH]c(CC(N)=O)nc3c2)cc1
31.8%			Cc1ccccc1NC(=O)c1ccc2[nH]c(CC(N)=O)nc2c1
52.2%	161 nM		NC(=O)Cc1nc2cc(OCc3ccc(C(F)(F)F)cc3)ccc2[nH]1
39.6%			NC(=O)Cc1nc2cc(C(=O)Nc3cccc(F)c3)ccc2[nH]1
27.2%			Cc1cccc(NC(=O)c2ccc3[nH]c(CC(N)=O)nc3c2)c1C
5.6%			Cc1ccccc1COc1ccc2[nH]c(CC(N)=O)nc2c1
33.7%			Cc1cccc(NC(=O)c2ccc3[nH]c(CC(N)=O)nc3c2)c1
52.7%	614 nM		Cc1cccc(COc2ccc3[nH]c(CC(N)=O)nc3c2)c1
5.84%			COc1cccc(COc2ccc3[nH]c(CC(N)=O)nc3c2)c1
10.1%			NC(=O)Cc1nc2cc(OCc3ccccc3F)ccc2[nH]1
2.8%			Cc1nc2cc(OCc3cccc(F)c3)ccc2[nH]1
24.8%			COc1ccccc1NC(=O)c1ccc2[nH]c(CC(N)=O)nc2c1
